Laboratory results as given in US11419878B2, “Medicine obtained by combining FXR agonist and ARB” (Intercept Pharmaceuticals, Inc., priority 2016, dated 2022).

What was measured:
[1] = test system: human hepatic stellate cells (HHSC); experiment: HHSC proliferation inhibition, WST-1 cell proliferation assay; assay type: cell-based; conditions: AT-II 10^-6M + LPS 10^-5M; ARB 10^-6M, obeticholic acid 5×10^-6M; 24 hours; WST-1 absorbance
Protocol: The various combined effects of obeticholic acid and three types of ARBs (losartan, valsartan, and candesartan) were confirmed in an in vitro cell system experiment. Specifically, using human hepatic stellate cells (HHSC), which are implicated in the main mechanism of progression of hepatic fibrosis in NASH, the effects of administration of obeticholic acid in combination with the three ARBs of inhibiting HHSC proliferation capacity and the expression of fibrosis markers were evaluated according to the following method. Human hepatic stellate cells (HHSC) (also referred to as human hepatic star cells) Obeticholic acid (obtained from Intercept Pharmaceuticals, Inc. via Sumitomo Dainippon Pharma Co., Ltd.) was used as an FXR agonist, and commercial losartan (potassium salt of losartan; referred to in this working example simply as “losartan”) and valsartan and candesartan ([…] of candesartan; referred to in this working example simply as “candesartan”) were used as ARBs. […] The direct action of inhibiting HIISC proliferation capacity was evaluated by means of a cell proliferation assay using WST-1 reagent. […] AT-II (10^-6M) Positive control group L […]): LPS 10^-5M) Positive control group AL ([…]): (10^-6M)+LPS (10^-5M) Obeticholic acid administration (G3): AT-II (10^-6M)+LPS (10^-5M)+obeticholic acid (5×10^-6M) ARB administration (G4): AT-II (10^-6M)+LPS (10^-5M)+ARB (10^-6M) Obeticholic acid+ARB combined administration (G5): AT-II (10^-6M)+LPS (10^-5M)+obeticholic acid (5×10^-6M)+ARB (10^-6M) 3) After the cells of the above groups (G1, G2A, G2L, G2AL, G3, G4, G5) were cultured for 24 hours, respective WST-1 cell proliferation assays were conducted, and the inhibitory effect of the pharmaceutical agents on cell proliferation was evaluated. The inhibitory effect of valsartan and candesartan on HHSC proliferation was also evaluated according to steps 1)-3) above. […]

[2] = test system: Otsuka Long-Evans Tokushima Fatty (OLETF) rats administered porcine serum (PS); experiment: Rat NASH model (OLETF rats given porcine serum), Sirius Red histology of hepatic fibrosis; assay type: in vivo; conditions: obeticholic acid 30 mg/kg/day and/or losartan 30 mg/kg/day oral; for fibrosis index (FI) as fraction of the level in the positive control group: PS 8 weeks, p<0.01; for progression of hepatic fibrosis (micrographs of Sirius Red-stained liver sections): PS i.p. twice weekly 8 weeks
Protocol: As a rat NASH model, Otsuka Long-Evans Tokushima. Fatty (OLETF) rats, which are known as a model for naturally-occurring type II diabetes with obesity, were administered porcine serum (PS) in order to experimentally induce liver fibrosis, and the therapeutic effects of distilled water (vehicle administration group), obeticholic acid (an FXR agonist) and losartan (an ARB) (administration groups, combined administration group) were investigated according to the following method.
Male OLETF rats (n=40) and Long-Evans Tokushima Otsuka (LETO) rats=10; non-diabetic negative control group)
Obeticholic acid (obtained from Intercept Pharmaceuticals, Inc. via Sumitomo Dainippon Pharma Co., Ltd.) was used as an FXR agonist, and commercial losartan (potassium salt of losartan; referred to in this working example simply as “losartan”) was used as an ARB.
Obeticholic acid (30 mg/kg/day) and/or losartan (30 mg/kg/day) was/were given by forced oral administration; the administration period was 8 weeks in all cases.
12-week-old OLETF rats were randomly divided into 4 groups (G2, G3, G4, G5) (n=10 for each group) and given intraperitoneal administrations of 1.0 ml/kg of porcine serum (PS) twice weekly for 8 weeks. 12-week-old LETO rats (n=10) were taken as group G1 and administered PS in the same manner. On the same day on which PS administration was begun, the group G3 and G4 rats were respectively administered obeticholic acid (30 mg/kg/day) and losartan (30 mg/kg/day) daily for 8 weeks by forced continuous oral administration. The group G5 rats were given daily combined administration of obeticholic acid (30 mg/kg/day) and losartan (30 mg/kg/day) for 8 weeks in the same manner. The rats in the G1 group (LETO) and G2 group (OLETF) were administered distilled water as a vehicle instead of the drugs and taken as the negative and positive control group respectively (with the same administration method as in the drug groups).
In order to evaluate the progression of hepatic fibrosis, formalin-fixed paraffin-embedded liver sections (5 μm in width) were taken from rats that had completed the above testing and stained with Sirius Red. Micrographs of the stained sections were taken and collected (in all of the rats, microscopic images were collected with a total of 10 fields per sample), and the micrographs of the various groups were compared. In order to quantitate the progression of fibrosis in the various groups, a semiquantitative analysis of the histological characteristics of the images of the stained specimens collected was conducted using ImageJ software from the NIH (National Institutes of Health).

FXR = target: T1, FXR (Homo sapiens, UniProt Q96RI1); conditions: background statement; cited from earlier work
T1 sequence (Q96RI1 1-486): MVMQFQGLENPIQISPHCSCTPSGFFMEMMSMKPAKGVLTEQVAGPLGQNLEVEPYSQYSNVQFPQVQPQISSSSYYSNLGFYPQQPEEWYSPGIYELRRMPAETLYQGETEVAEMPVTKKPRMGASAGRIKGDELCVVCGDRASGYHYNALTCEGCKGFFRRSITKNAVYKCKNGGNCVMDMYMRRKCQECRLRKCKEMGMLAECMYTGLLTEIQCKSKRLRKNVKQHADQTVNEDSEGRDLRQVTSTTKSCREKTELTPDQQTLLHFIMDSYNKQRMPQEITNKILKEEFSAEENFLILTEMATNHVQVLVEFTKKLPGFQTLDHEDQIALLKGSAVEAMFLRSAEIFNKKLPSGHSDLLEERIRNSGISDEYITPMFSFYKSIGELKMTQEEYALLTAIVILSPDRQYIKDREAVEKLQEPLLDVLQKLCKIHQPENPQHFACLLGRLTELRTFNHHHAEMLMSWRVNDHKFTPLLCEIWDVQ

For `CCCCc1nc(Cl)c(CO)n1Cc1ccc(-c2ccccc2-c2nn[nH]n2)cc1` [losartan], the “promotion of activated HHSC proliferation by AT-II and LPS, compared to positive control group AL (G2AL)” value [1] was “statistically significant inhibition”, the “fibrosis index (FI) as fraction of the level in the positive control group” value [2] was 7/10 and the “progression of hepatic fibrosis (micrographs of Sirius Red-stained liver sections)” value [2] was “moderately inhibited”.

In the case of `CC[C@H]1[C@@H](O)[C@@H]2[C@H](CC[C@]3(C)[C@@H]([C@H](C)CCC(=O)O)CC[C@@H]23)[C@@]2(C)CC[C@@H](O)C[C@@H]12` [obeticholic acid, 3α,7α-dihydroxy-6α-ethyl-5β-cholan-24-oic acid], the “FXR agonist action / FXR-stimulating action” value (FXR) is listed as “strongest FXR-stimulating action among the semi synthetic alkylated bile acids”, the “fibrosis index (FI) as fraction of the level in the positive control group” value [2] is listed as “approximately 6/10” and the “progression of hepatic fibrosis (micrographs of Sirius Red-stained liver sections)” value [2] is listed as “moderately inhibited”.
